Each structure is given as a SMILES string.

From patent US8618301B2, “5-phenylpyrazolopyridine derivatives, preparation and therapeutic use thereof” (Sanofi, priority 2009, dated 2013) come the findings set out here.

The target in one data set is T1, mouse Nurr1 receptor (Mus musculus, UniProt Q06219).
T1 construct: a cell line (N2A) endogenously expressing the mouse Nurr1 receptor; host or cells: Neuro-2A (N2A) mouse neuroblastoma cells stably transfected with 8NBRE-luciferase
Briefly: In vitro activity on N2A cells (8NBRE-luciferase reporter). The class given is cell-based. Conditions: N2A-8NBRE cells, 24 hours incubation. The method, then: The compounds according to the invention have formed the subject of pharmacological assays which make it possible to determine their modulatory effect on NOT. Evaluation of the In Vitro Activity on N2A Cells
The activity of the compounds according to the invention was evaluated on a cell line (N2A) endogenously expressing the mouse Nurr1 receptor and stably transfected with the NOT binding response element (NBRE) coupled to the luciferase reporter gene. The assays were carried out according to the procedure described below.
The Neuro-2A cell line comes from a standard commercial source (ATCC). The Neuro-2A clone was obtained, from a spontaneous tumour originating from an A albino mouse strain, by R. J Klebe et al. This Neuro-2A line is subsequently stably transfected with 8NBRE-luciferase. The N2A-8NBRE cells are cultured until confluence in 75 cm^2 culture flasks containing DMEM supplemented with 10% of foetal calf serum, 4.5 g/l of glucose and 0.4 mg/ml of geneticin. After a week of culture, the cells are recovered with 0.25% trypsin for 30 seconds and then resuspended in DMEM without phenol red, containing 4.5 g/l of glucose and 10% of Hyclone delipidized serum, and deposited into transparent-bottom 96-well white plates. The cells are deposited at a rate of 60 000 per well in 75 μl for 24 hours before the addition of the products. The products are applied in 25 μl and incubated for a further 24 hours. On the day of the measurement, an equivalent volume (100 μl) of Steadylite is added to each well and then left for a period of 30 minutes in order to obtain complete cell lysis and maximum signal production. The plates are subsequently measured in a luminescence counter for microplates after having been sealed with an adhesive film. The products are prepared in the form of a stock solution at 10^−2M and then diluted in 100% of DMSO. Each product concentration is prediluted in culture medium before incubation with the cells, thus containing 0.625% final concentration of DMSO.
Background: In a reporter assay the amount or activity of a reporter protein is the signal.

T1 sequence (Q06219 whole entry): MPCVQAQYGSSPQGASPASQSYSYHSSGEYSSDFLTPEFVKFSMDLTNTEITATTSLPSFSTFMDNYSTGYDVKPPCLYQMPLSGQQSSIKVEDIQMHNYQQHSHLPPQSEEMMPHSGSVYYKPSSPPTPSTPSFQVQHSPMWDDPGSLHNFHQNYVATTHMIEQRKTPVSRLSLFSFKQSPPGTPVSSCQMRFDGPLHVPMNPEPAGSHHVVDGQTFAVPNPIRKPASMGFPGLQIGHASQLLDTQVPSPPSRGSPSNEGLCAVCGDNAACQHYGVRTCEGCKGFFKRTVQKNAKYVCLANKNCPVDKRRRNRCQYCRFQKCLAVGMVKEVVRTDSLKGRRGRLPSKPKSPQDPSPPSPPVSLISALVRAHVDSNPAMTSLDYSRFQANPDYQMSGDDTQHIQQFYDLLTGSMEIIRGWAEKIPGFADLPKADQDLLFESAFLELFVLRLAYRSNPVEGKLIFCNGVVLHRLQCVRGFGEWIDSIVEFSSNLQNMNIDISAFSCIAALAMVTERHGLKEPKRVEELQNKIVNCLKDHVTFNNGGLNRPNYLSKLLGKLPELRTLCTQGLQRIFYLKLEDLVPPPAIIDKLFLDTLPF

By melting point is commonly meant the temperature of the solid-liquid transition. The compound `OCc1c(F)ccc(-c2ccn3nc(-c4ccc(Cl)cc4)cc3c2)c1F` [Compound 5, {3-[2-(4-chlorophenyl)pyrazolo[1,5-a]pyridin-5-yl]-2,6-difluorophenyl}-methanol] displayed a melting point of 190 to 192 °C. For orientation: EC50 means the concentration at which the effect is half-maximal. Read a high EC50 as lower potency in that assay. Compound `OC1CCc2ccc(-c3ccn4nc(-c5ccc(Cl)cc5)cc4c3)cc21` (stereo not drawn) [Compound 12, 6-[2-(4-chlorophenyl)pyrazolo[1,5-a]pyridin-5-yl]indan-1-ol] returned a melting point of 181 to 183 °C. The compound further yielded an EC50 at mouse Nurr1 receptor of 164 nM. In turn, `OCc1ccccc1-c1ccn2nc(-c3ccc(Cl)cc3)cc2c1` [Compound 11, {2-[2-(4-chlorophenyl)pyrazolo[1,5-a]pyridin-5-yl]phenyl}methanol] yielded a melting point of 144 to 146 °C. Further, on mouse Nurr1 receptor, the EC50 was 1.7 nM.

On to `OCc1cccc(-c2ccn3nc(-c4ccc(Cl)cc4)cc3c2)c1` [Compound 1, {3-[2-(4-chlorophenyl)pyrazolo[1,5-a]pyridin-5-yl]phenyl}methanol], for which the melting point is 161 to 164 °C. On mouse Nurr1 receptor, this compound had an EC50 of 0.2 nM. Take `CC(O)c1cccc(-c2ccn3nc(-c4ccc(Cl)cc4)cc3c2)c1` (stereo not drawn) [Compound 3, 1-{3-[2-(4-chlorophenyl)pyrazolo[1,5-a]pyridin-5-yl]phenyl}ethanol]: the melting point lay in the range of 93 to 95 °C. On the same count and under the same terms, the result for `COCc1cccc(-c2ccn3nc(-c4ccc(Cl)cc4)cc3c2)c1` [Compound 9, 2-(4-chlorophenyl)-5-(3-methoxymethylphenyl)pyrazolo[1,5-a]pyridine] reads 130 to 132 °C. Compound `CC(C)(O)c1cccc(-c2ccn3nc(-c4ccc(Cl)cc4)cc3c2)c1` [Compound 2, 2-{3-[2-(4-chlorophenyl)pyrazolo[1,5-a]pyridin-5-yl]phenyl}propan-2-ol] gave a melting point of 159 to 161 °C. `OCc1ccc(-c2ccn3nc(-c4ccc(Cl)cc4)cc3c2)cc1` [Compound 10, {4-[2-(4-chlorophenyl)pyrazolo[1,5-a]pyridin-5-yl]phenyl}methanol] showed a melting point of 214 to 216 °C. On the same count and under the same terms, next, `CC(O)c1cccc(-c2ccn3nc(-c4ccc(F)cc4)cc3c2)c1` (stereo not drawn) [Compound 8, 1-{3-[2-(4-fluorophenyl)pyrazolo[1,5-a]pyridin-5-yl]phenyl}ethanol]: 132 to 134 °C.

For `OCC1(c2cccc(-c3ccn4nc(-c5ccc(Cl)cc5)cc4c3)c2)CC1` [Compound 4, 1-{3-[2-(4-chlorophenyl)pyrazolo[1,5-a]pyridin-5-yl]phenyl}cyclopropylmethanol], the melting point is 141 to 143 °C. Same read-out and setting: the result for `OCc1cccc(-c2ccn3nc(-c4ccc(F)cc4)cc3c2)c1` [Compound 6, {3-[2-(4-fluorophenyl)pyrazolo[1,5-a]pyridin-5-yl]phenyl}methanol] reads 141 to 143 °C; that for `CC(C)(O)c1cccc(-c2ccn3nc(-c4ccc(F)cc4)cc3c2)c1` [Compound 7, 2-{3-[2-(4-fluorophenyl)pyrazolo[1,5-a]pyridin-5-yl]phenyl}propan-2-ol], 162 to 164 °C.
